Read-outs that look alike come from different tables or passages of the source.

Series [1] concerns Myzus persicae. The experiment in a line: Myzus persicae - drench test (cabbage plants). Conditions: soil. It counts as in vivo. As to the method: (§1) Formula for the Efficacy of the Combination of Two Compounds
(§2) Schneider-Orelli: Formula to Calculate Corrected Efficacy % in Pesticide Trials
Myzus persicae—Drench Test
(§3) • Solvent: 7 parts by weight of dimethylformamide • Emulsifier: 2 parts by weight of alkylaryl poly glycol ether
(§4) In the calculation of the concentration the soil volume has to be included. […] Further test concentrations are prepared by dilution with water.
After the specified period of time mortality in % is determined. 100% means all the aphids have been killed and 0% means none of the aphids have been killed. The mortality values determined thus are recalculated using the Colby-formula (see sheet 1).

The test system of series [2] is Meloidogyne incognita. Nature of the series: Meloidogyne incognita - test (gall formation, sand, salad seedlings). It counts as in vivo. As to the method:
as §1, §2
Meloidogyne incognita—Test […]
Vessels are filled with sand, a solution of the active ingredient, a suspension containing eggs and larvae of the southern root-knot nematode (Meloidogyne incognita) and salad seeds. The salad seeds germinate and the seedlings grow. Galls develop in the roots.
After the specified period the nematicidal activity is determined on the basis of the percentage of gall formation.

Series [3] deals with Spodoptera frugiperda. The experiment in a line: Spodoptera frugiperda - drench test (corn plants). The format is in vivo. As to the method:
as §1, §2
Spodoptera frugiperda—Drench Test
as §3, §4
After the specified period of time mortality in % is determined and corrected according to Schneider-Orelli's formula (see sheet 1). 100% means all the caterpillars have been killed and 0% means none of the caterpillars have been killed. The mortality values determined thus are recalculated using the Colby-formula (see sheet 1).

The subject of series [4] is Meloidogyne incognita. The experiment in a line: Meloidogyne incognita - drench test (soil, salad seedlings). It counts as in vivo. How it is done:
as §1, §2
Meloidogyne incognita—Drench Test
• Solvent: 7 parts by weight of dimethylformamide • Emulsifier: 2.5 parts by weight of alkylarylpolyglycolether
as §4
The compound solution is poured into pots filled with soil (loamy sand). A suspension containing eggs and larvae of the southern root-knot nematode (Meloidogyne incognita) is added, salad seeds are spread on the soil surface and covered with quartz sand. The salad seeds germinate and the seedlings grow. Galls develop on the roots.
After the specified period of time the nematicidal activity is determined on the basis of the percentage of gall formation. […] The activity determined thus is recalculated using the Colby-formula (see sheet 1).

The test system of series [5] is Tetranychus urticae. Nature of the series: Tetranychus urticae - drench test; OP-resistant (bean plants). Conditions: for mortality at 25 ppm: Tetranychus urticae, soil, 360 h, read-out: Efficacy in % after 15 d (mortality). The format is in vivo. As to the method:
as §1, §2
Tetranychus urticae—Drench Test; OP-Resistant
as §3, §4
After the specified period of time mortality in % is determined. 100% means all the spider mites have been killed and 0% means none of the spider mites have been killed. The mortality values determined thus are recalculated using the Colby-formula (see sheet 1).

The nature of series [6]: logP by HPLC-MS.
Where [7] appears, read: 168 h, 7 d, read-out: Efficacy in % after 7d.
Where [8] appears, read: 240 h, 10 d, read-out: Efficacy in % after 10d.

Turning to `CNC(=O)c1cc(C#N)cc(C)c1NC(=O)c1cc(Cn2nnc(C(F)(F)F)n2)nn1-c1ncccc1Cl` [1-(3-chloropyridin-2-yl)-N-[4-cyano-2-methyl-6-(methylcarbamoyl)phenyl]-3-{[5-(trifluoromethyl)-2H-tetrazol-2-yl]methyl}-1H-pyrazole-5-carboxamide], the pest or weed control at 0.25 ppm in series [1] (setting [7]) and in series [1] (setting [8]) was 0% throughout.

In the case of `C/C=C(\C)C(=O)O[C@H]1C[C@@H](OC(C)=O)[C@@]2(C(=O)OC)CO[C@H]3[C@@H](O)[C@@](C)([C@]45O[C@@]4(C)[C@H]4C[C@@H]5O[C@@H]5OC=C[C@@]54O)[C@H]4[C@]1(CO[C@]4(O)C(=O)OC)[C@@H]32` [Azadirachtin], the “Efficacy in % after 14d” value in series [2] (16 ppm) worked out at 0%.

In the case of `CCOP(=O)(SC(C)CC)SC(C)CC` (stereo not drawn) [Cadusafos], the “Efficacy in % after 14d” value in series [2] (50 ppm) and in series [2] (100 ppm) was 0% each time.

As for `CNC(=O)Oc1cccc2c1OC(C)(C)C2` [Carbofuran], the “Efficacy in % after 14d” value in series [2] (50 ppm) and in series [2] (100 ppm) was 0% in each case.

`CNC(=O)c1cc(Cl)cc(C)c1NC(=O)c1cc(Br)nn1-c1ncccc1Cl` [Chlorantraniliprole]: the “Efficacy in % after 14d” value in series [3] (0.04 ppm) is 66.5%. In series [1] (168 h, 0.8 ppm, 7 d, read-out: Efficacy in % after 7d), the pest or weed control at 0.8 ppm was determined as 10%. In addition, in series [1] (168 h, 1.6 ppm, 7 d, read-out: Efficacy in % after 7d), the pest or weed control at 1.6 ppm turned out to be 20%. Moreover, in series [1] (240 h, 0.4 ppm, 10 d, read-out: Efficacy in % after 10d), the pest or weed control at 0.4 ppm is 0%.

For `CN/C(=N\[N+](=O)[O-])NCc1cnc(Cl)s1` [Clothianidin, reference compound], the “Efficacy in % after 6d” value in series [3] (2 ppm) is listed as 0%. In series [3] (10 ppm), the “Efficacy in % after 4d” value amounted to 0% and the “Efficacy in % after 6d” value was 37%.

On to `O=C(Nc1ccn(-c2c(F)cccc2F)n1)c1ccccc1C(F)(F)F` [Compound (Ia), N-[1-(2,6-difluorophenyl)-1H-pyrazol-3-yl]-2-(trifluoromethyl)benzamide], for which the “Efficacy in % after 14d” value in series [2] (1 ppm), in series [2] (5 ppm), in series [2] (10 ppm), in series [3] (0.2 ppm) and in series [3] (40 ppm) was 0% in each case. The “Efficacy in % after 4d” value in series [3] (200 ppm) was determined as 0%. Also, the “Efficacy in % after 6d” value in series [3] (200 ppm) is 0%. Besides, in series [4] (0.75 ppm), the “Efficacy in % after 21d” value stood at 0%. Further, the pest or weed control at 2 ppm in series [1] (setting [7]) and in series [1] (setting [8]) was 0% throughout. Moreover, the pest or weed control at 20 ppm in series [1] (setting [7]) and in series [1] (setting [8]) was 0% throughout. In addition, the mortality at 25 ppm in series [5] is 10%. In series [6], the logP was determined as 2.68.

Take `O=C(Nc1ccn(-c2ncc(F)cc2F)n1)c1ccccc1C(F)(F)F` [Compound (Ib), N-[1-(3,5-difluoropyridin-2-yl)-1H-pyrazol-3-yl]-2-(trifluoromethyl)benzamide]: the “Efficacy in % after 14d” value in series [3] (40 ppm) is reported as 0%. In series [3] (200 ppm), the “Efficacy in % after 4d” value is recorded as 0% and the “Efficacy in % after 6d” value was 0%. Also, the “Efficacy in % after 21d” value in series [4] (0.75 ppm) worked out at 55%. Moreover, in series [1] (setting [7]), the pest or weed control at 2 ppm amounted to 0% and the pest or weed control at 20 ppm was 0%. Also, the pest or weed control at 2 ppm in series [1] (setting [8]) came out at 0%. In series [5] (drench, bean plants, 25 ppm, after 15 d, single compound), the mortality at 25 ppm came to 0%.

In the case of `O=C(Nc1cnn(-c2c(F)cccc2F)n1)c1ccccc1C(F)(F)F` [Compound (Ic), N-[2-(2,6-Difluorophenyl)-2H-1,2,3-triazol-4-yl]-2-(trifluoromethyl)benzamide], the “Efficacy in % after 14d” value in series [2] (0.25 ppm) is reported as 0%; in series [2] (1 ppm), 0%; in series [2] (5 ppm) it was 0%; in series [2] (10 ppm), 70%; in series [3] (0.2 ppm), 0%; in series [3] (0.8 ppm) it was 0%. In addition, the “Efficacy in % after 4d” value in series [3] (200 ppm) worked out at 0%. The “Efficacy in % after 6d” value in series [3] (200 ppm) was found to be 0%. Moreover, the pest or weed control at 2 ppm in series [1] (setting [7]) and in series [1] (setting [8]) was 0% in each case. Also, the pest or weed control at 20 ppm in series [1] (setting [7]) is 0%. The mortality at 25 ppm in series [5] came out at 0%. In addition, the logP in series [6] is listed as 2.80.

In the case of `CNC(=O)c1cc(C#N)cc(C)c1NC(=O)c1cc(Br)nn1-c1ncccc1Cl` [Cyantraniliprole], the “Efficacy in % after 14d” value in series [3] (0.08 ppm) was 16.5%. The pest or weed control at 0.1 ppm in series [1] (setting [7]) turned out to be 20%; in series [1] (setting [8]), 10%.

Turning to `N#Cc1nn(-c2c(Cl)cc(C(F)(F)F)cc2Cl)c(N)c1[S+]([O-])C(F)(F)F` (stereo not drawn) [Fipronil], in series [1] (setting [7]), the pest or weed control at 5 ppm amounted to 15% and the pest or weed control at 10 ppm worked out at 40%. Moreover, in series [1] (setting [8]), the pest or weed control at 5 ppm is 50% and the pest or weed control at 10 ppm stood at 55%.

In the case of `Cc1cc(C(F)(C(F)(F)F)C(F)(F)F)ccc1NC(=O)c1cccc(I)c1C(=O)NC(C)(C)CS(C)(=O)=O` [Flubendiamide, reference compound], the “Efficacy in % after 14d” value in series [3] (4 ppm) amounted to 33%; in series [3] (8 ppm), 66%.

Take `O=C(NCCc1ncc(C(F)(F)F)cc1Cl)c1ccccc1C(F)(F)F` [Fluopyram, reference compound]: the “Efficacy in % after 21d” value in series [4] (0.15 ppm) is on record as 0%.

In the case of `O=[N+]([O-])NC1=NCCN1Cc1ccc(Cl)nc1` [Imidacloprid, reference compound], the “Efficacy in % after 6d” value in series [3] (10 ppm) came out at 0%. Moreover, in series [3] (50 ppm), the “Efficacy in % after 4d” value came out at 22% and the “Efficacy in % after 6d” value stood at 12%.

With `CC(C)NC(=O)N1CC(=O)N(c2cc(Cl)cc(Cl)c2)C1=O` [Iprodione], the “Efficacy in % after 14d” value in series [2] (50 ppm) and in series [2] (100 ppm) was 0% in each case.

As to `O=C(N=c1ccccn1Cc1ccc(Cl)nc1)C(F)(F)F` [N-[1-[(6-chloro-3-pyridinyl)methyl]-2(1H)-pyridinylidene]-2,2,2-trifluoro-acetamide], the pest or weed control at 0.1 ppm was found to be 30% in series [1] (setting [7]) and 20% in series [1] (setting [8]).

Regarding `CS/C(C)=N\OC(=O)N(C)SN(C)C(=O)O/N=C(\C)SC` [Thiodicarb], the “Efficacy in % after 14d” value in series [2] (50 ppm) is recorded as 0%.

In series [6], `CC(=O)NC1=NN(c2c(F)cccc2F)CC1` [intermediate (Ia-2), N-[1-(2,6-Difluorophenyl)-4,5-dihydro-1H-pyrazol-3-yl]acetamide] returned a logP of 1.46.

The compound `CC(=O)Nc1ccn(-c2c(F)cccc2F)n1` [intermediate (Ia-3), N-[1-(2,6-Difluorophenyl)-1H-pyrazol-3-yl]acetamide] showed a logP in series [6] of 1.33. This logP and that of the compound before are within 0.2 log units of each other.

As to `Nc1ccn(-c2c(F)cccc2F)n1` [intermediate (Ia-4), 1-(2,6-Difluorophenyl)-1H-pyrazole-3-amine], the logP in series [6] was 1.13.

`Nc1ccn(-c2ncc(F)cc2F)n1` [intermediate (Ib-1), 1-(3,5-Difluoropyridin-2-yl)-1H-pyrazole-3-amine]: the logP in series [6] was 0.81.

For `Nc1cnn(-c2c(F)cccc2F)n1` [intermediate (Ic-8), 2-(2,6-Difluorophenyl)-2H-1,2,3-triazole-4-amine], the logP in series [6] is on record as 1.16.

Regarding Abamectin, the “Efficacy in % after 14d” value in series [2] (0.02 ppm) and in series [2] (0.08 ppm) was 0% in each case.

With Emamectin-benzoate, in series [5] (drench, bean plants, 2 ppm, after 15 d, single compound), the “Efficacy in % after 15 d (mortality)” value was 10%.

As usually defined, the mortality is the share of the test organisms that died. What is called logP is the decadic logarithm of the partition coefficient of the neutral form, usually between octanol and water. A lower logP goes with a more hydrophilic compound.

These data come from US10757939B2, “Insecticidal and nematocidal active ingredient combinations” (priority 2014, dated 2020).
